In article PMC11592675, “Förster Resonance Energy Transfer Measurements in Living Bacteria for Interaction Studies of BamA with BamD and Inhibitor Identification” (Cells, 2024):
Several values for one entry are separate records, joined by “and”; a condition that tells them apart may be missing. Equal entries are not always repeated. Entries after “also recorded” stand apart in the source; their conditions may differ.

Columns and labels:
[1] = tested on: outer membrane; settings: cited from earlier work
Text: Resistance against known antibiotics is progressively spreading. Therefore, new antibacterial entities are urgently needed. […] The β-barrel assembly ... || The interaction between BamA and BamD is essential for the correct function of the BAM complex. BamE has been reported to stabilize the interaction between BamA and BamD [29]. In this work, BamE was not overexpressed alongside the fluorophore-labeled BamA and BamD fusion proteins. It is therefore unclear to what extent chromosomal-encoded BamE stabilized the complex between fluorophore-labelled BamA and BamD. It is also possible that the interaction measured between BamA and BamD was not affected by BamE at all, due to the low amount of BamE present in comparison to the plas ...

[2] = tested on: interaction between BamA and BamD; settings: yeast two hybrid high throughput screening; cited from earlier work
Text: (§1) Resistance against known antibiotics is progressively spreading. Therefore, new antibacterial entities are urgently needed. […] The β-barrel assembly ...

[3] = tested on: gram-negative bacteria; settings: in vitro; cited from earlier work
Text: as §1

[4] = tested on: BamA; settings: cited from earlier work
Text: Resistance against known antibiotics is progressively spreading. Therefore, new antibacterial entities are urgently needed. According to the WHO, new antibiotics against gram-negative bacteria are in particular need. Common mechanisms of antibiotic resistance in gram-negative bacteria include changes in membrane and cell-wall permeability, biofilm formation, the production of efflux pumps and beta-lactamases, as well as mutation of typical targets. […] The β-barrel assembly ...

[5] = biological target: mNeonGreen-BamA (N-terminal fusion of mNeonGreen to BamA) (E. coli) (UniProt P0A940); assay: FRET or BRET; flow cytometry (three channels) of living E. coli BL21 co-expressing the mNeonGreen (donor) and mScarlet-I (acceptor) fusions from one plasmid; cells washed with PBS; binding model (law of mass action) fitted to DFRET and relative concentrations with Ka app, z and Fmax all as free parameters; apparent; five replicates on each of three days
[6] = biological target: BamA-mNeonGreen (C-terminal fusion of mNeonGreen to BamA) (E. coli) (UniProt P0A940); assay: as above
[7] = tested on: BamA–BamD interaction; assay: FRET-based determination of apparent affinity of BamA, BamD and their variants / FRET pairs in living E. coli cells; format: cell-based; settings: BamA-mNeonGreen–BamD-mScarlet-I, n = 5 biological replicates (Figure 3c)
Text: E. coli Stellar (F−, endA1, supE44, thi-1, recA1, relA1, gyrA96, phoA, Φ80d lacZΔ M15, Δ(lacZYA-argF) U169, Δ(mrr-hsdRMS-mcrBC), ΔmcrA, λ−) was used for plasmid construction. E. coli BL21 (B, F^−, gal, dcm, Ion, hsdSB(rB^− mB^−), [malB^+]K-12(λ^S)) was used for expression of all fusion proteins and subsequent flow cytometric analysis. Plasmids were constructed by ligation free cloning using the InFusion™ cloning kit (Clonetech, San Jose, CA, USA) according to the manufacturer’s instructions, based on plasmid backbones described earlier. Details on the determinants and the construction of each of the used plasmids is given in the Supplementary Information (Supplementary Table S1 and Supplementary Text S1). Oligonucleotides used in their constructions are listed in Supplementary Table S2. Single-point mutations were introduced with the InFusion™ cloning kit. Oligonucleotides used are listed in Supplementary Table S2.
(§2) At the start of each experiment, E. coli BL21 cells were transformed with the corresponding plasmids, spread onto lysogeny broth-miller (LB)-agar plates with 50 µg/mL kanamycin (≥750 I.U./mg) or carbenicillin (purity: ≥88%) and grown over night. It turned out to be crucial to use freshly transformed cells for each experiment. Keeping the cells on agar plates for more than two days or cryoconservation of the cells led to an increase in the variability of the determined parameters Ka^app., z and Fmax. The following day, after transformation of the cells, 1 mL of LB medium with 50 µg/mL of the corresponding antibiotic in a 48-well plate was inoculated with a single colony and cultivated overnight (16 h) at 37 °C and 200 rpm. For protein production, M9 mineral medium was used, in which glucose was substituted by 1% (m/m) glycerol (purity: ≥99%) as the carbon source. A quantity of 200 µL of M9 medium in a 96-well plate was inoculated with 2 µL of the overnight culture and cultivated at 28 °C and 200 rpm for 6 h. Then, gene expression was induced with 1 mM L-rhamnose (purity: ≥98%), and afterwards an additional 2 h of cultivation with 0.2% (m/V) arabinose (purity: ≥99%). Cells that carried a plasmid that only contained one promotor were only treated with the corresponding inductor. Following induction of gene expression, cells were cultivated for an additional 16 h at 28 °C and 200 rpm. Cells were subsequently washed with PBS three times and then directly analyzed by flow cytometry.
(§3) A FACS Aria III flow cytometer (BD Bioscience, Franklin Lages, NJ, USA) with a 70 microns nozzle was used to analyze all cells. A three-channel method was used to measure the donor channel (mNeonGreeen), the acceptor channel (mScarlet-I) and the FRET channel. To measure the mNeonGreen fluorescence, an excitation wavelength of 488 nm and emission wavelength filters of 530/30 nm (band-pass) and 502 nm (long-pass) were used. mScarlet-I fluorescence was excited at 561 nm and measured with emission wavelength filters of 610/20 nm (band-pass) and 600 nm (long-pass). The FRET channel was measured with an excitation wavelength of 488 nm and emission filters of 610/20 nm (band-pass) and 600 nm (long-pass). A maximum of 10,000 cells per second were analyzed. FACSDiva™ Software (BD Bioscience, Franklin Lages, NJ, USA, version 8.0) was used for gating data analysis. For cells only expressing one fluorophore, 50,000 cells per sample were analyzed. […] A total of 50,000 cells inside the Q2 gate were analyzed. Examples are shown in Supplementary Figure S2. Cells at the edge of the plot were excluded during calculation of DFRET values and relative donor/acceptor concentrations.
Data points of all cells inside the analysis gate (Q2), as described in 2.4, were exported as FCS files using FACSDiva™ Software (BD Bioscience, Franklin Lages, NJ, USA, version 8.0). A custom Python program employing the FlowKit was subsequently used to convert the FCS formatted data into tab-delimited txt format. […]

[8] = tested on: Pseudomonas aeruginosa; settings: cited from earlier work
Text: Mori et al. identified a peptide sequence (FIRL) that was highly conserved across BamD homologues in a wide variety of gram-negative bacteria. […] When the peptide was identified by Mori et al., no crystal structure of the BAM complex was available. When we located the amino acids of the FIRL peptide in the crystal structure of BamD, it turned out that only two of the four amino acids, R97 and L98, appeared to interact with BamA at site 2 (Figure 3c). The sidec ... || The interaction between BamA and BamD is essential for the correct function of the BAM complex. BamE has been reported to stabilize the interaction between BamA and BamD [29]. In this work, BamE was not overexpressed alongside the fluorophore-labeled BamA and BamD fusion proteins. It is therefore unclear to what extent chromosomal-encoded BamE stabilized the complex between fluorophore-labelled BamA and BamD. It is also possible that the interaction measured between BamA and BamD was not affected by BamE at all, due to the low amount of BamE present in comparison to the plas ...

[9] = tested on: bacterial growth; assay: inhibition of bacterial growth by the peptides; format: cell-based, E. coli; settings: up to a concentration of 2.5 mM
[10] = tested on: interaction between BamA and BamD (BamA-mNeonGreen and BamD-mScarlet-I); assay: FRET-based BamA–BamD interaction assay in living E. coli cells (flow cytometry), peptide treatment; format: cell-based; settings: for Ka^app. of the BamA–BamD interaction after peptide treatment: cells incubated 3 h in water, z and Fmax kept constant, n = 5 biological replicates, untreated control in the RFIRLN experiment Ka^app. = 3.08 × 10^−4; for inhibition of the interaction between BamA and BamD (in words): living bacterial cells, 500 µM and 2.5 mM peptide, 3 h in water
Experimental: as §2, §3
Data points of all cells inside the analysis gate (Q2), as described in 2.4, were exported as FCS files using FACSDiva™ Software (BD Bioscience, Franklin Lages, NJ, USA, version 8.0). A custom Python program employing the FlowKit was subsequently used to convert the FCS formatted data into tab-delimited txt format.
Calculation of the DFRET and calculation of the relative concentration of the acceptor and donor from the flow cytometric data were performed as described by Hochreiter et al.. Cells with an RFU ≥ 250,000 were excluded from further analysis. Fitting of a binding model based on the law of mass actions to the data was also performed as described by Hochreiter et al.. The binding model used here (Equation (1)) fits the affinity (Ka^app), the stoichiometry (z) and the maximum FRET (Fmax) of a complex. To do so, the relative donor and acceptor concentration, as well as the DFRET, of a large number of cells with different expression levels has to be known. All other equations used for the calculations are described in Supplementary Text S1 for clarity. The FRET-efficiency of the donor- acceptor tandem, needed for the calculations, was determined by spectral unmixing according to Alexeeva et al. to be 0.43 [42]. […]

[11] = M9 medium or PBS; not soluble at concentrations above 1 mM
Experimental: Peptides (RFIRLN and […]) were synthesized by Genicbio with a purity of >95%. For treatment with the peptides, cells were grown as described above. […] Cells not treated with the peptide were also incubated in water for 3 h and used as a control for all experiments involving the peptides.

[12] = tested on: clinical isolates; settings: several clinical isolates; cited from earlier work
Text: as §1

[13] = interaction site 1 variants, z and Fmax constant
[14] = interaction site 2 variants, z = 1, Fmax = 0.36 constant

COC(=O)c1c(NC(=O)c2ccc([N+](=O)[O-])o2)sc2c1CCN(C(C)C)C2 [IMB-H4]
permeabilization of the OM [1]: shown to permeabilize the OM
inhibition of the interaction between BamA and BamD [2]: shown to inhibit the interaction between BamA and BamD
antibacterial activity [3]: showed antibacterial activity in vitro
binding to BamA ([4]; no specific interaction site known): binds to BamA

BamD-mScarlet-I (C-terminal fusion of mScarlet-I to BamD) (from UniProt P0AC02 20-245) (natural protein)
stoichiometry N [5]: 0.7 and 1.1
stoichiometry N [6]: 1.3 and 1.6 and 1.2

BamD^E187A: BamD variant
Ka^app. [7, 13]: 7.82 × 10^−5

BamD^L98A: BamD variant
Ka^app. [7, 14]: 6.58 × 10^−5

BamD^N99A: BamD variant
Ka^app. [7, 14]: 6.57 × 10^−5

BamD^R94A: BamD variant
Ka^app. [7, 14]: 5.47 × 10^−5

BamD^R97A: BamD variant
Ka^app. [7, 14]: 6.23 × 10^−5

BamD^Y184A: BamD variant
Ka^app. [7, 13]: 5.27 × 10^−5

BamD^Y184F: BamD variant
Ka^app. [7, 13]: 6.22 × 10^−5

BamD^Y185A: BamD variant, Y185 mutated to alanine
Ka^app. [7, 13]: 6.22 × 10^−5

E183A: BamD variant
Ka^app. [7, 13]: 7.2 × 10^−5

FIRL [peptide derived from BamD, Mori et al]
effect on outer membrane integrity / membrane permeability [1]: cause membrane permeability in treated cells; also recorded: shown to interfere with outer membrane integrity
bacteriostatic or bactericidal effects [8]: did not show any bacteriostatic or bactericidal effects
potentiation of antibiotics [8]: potentiated the effect of antibiotics; also recorded: potentiate the activity of antibiotics

RFIRLN
inhibition of bacterial growth [9]: no inhibition of bacterial growth was detected up to a concentration of 2.5 mM
Ka^app. of the BamA–BamD interaction after peptide treatment ([10]; 500 µM peptide): 1.95 × 10^−4
Ka^app. of the BamA–BamD interaction after peptide treatment ([10]; 2.5 mM peptide): 7.48 × 10^−5
inhibition of the interaction between BamA and BamD (in words) [10]: inhibit the interaction between BamA and BamD in a dose-dependent manner in the upper micromolar range; also recorded: a clear dose-dependent effect was observed; also recorded: shown to inhibit binding of BamA to BamD in living cells
solubility [11]: ≤ 1000 µM

V181A: BamD variant
Ka^app. [7, 13]: 6.66 × 10^−5

VAEYYTER
inhibition of bacterial growth [9]: no inhibition of bacterial growth was detected up to a concentration of 2.5 mM
Ka^app. of the BamA–BamD interaction after peptide treatment ([10]; 500 µM peptide): 1.75 × 10^−4
Ka^app. of the BamA–BamD interaction after peptide treatment ([10]; 2.5 mM peptide): 1.03 × 10^−4
inhibition of the interaction between BamA and BamD (in words) [10]: inhibit the interaction between BamA and BamD in a dose-dependent manner in the upper micromolar range; also recorded: a clear dose-dependent effect was observed; also recorded: able to disrupt the binding of BamD to BamA in living cells in high micromolar concentrations

darobactin
antimicrobial activity [12]: antimicrobial activity against several clinical isolates
effect on insertion of BamA client proteins into the outer membrane [4]: prevents the insertion of BamA client proteins into the outer membrane
